Test system: 556581-035-R-J1-PDC complex spheroid growth
Assay: Anticancer human tumor 556581-035-R-J1-PDC patient-derived ovarian carcinoma cell line growth inhibition [Asc]
Details: for IC50: curve of first compound; for viability, T/C: stronger effect = lower value
Summary of the method: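 Concentration series start at each agent's clinical Cmax, or at 10 microM when none is established, and drop in half-log steps; agents are applied alone or together to complex spheroids built with HUVEC and hMSC.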

[1] = second compound 0.1 µM, first compound 0.00316 µM
[2] = second compound 0.1 µM, first compound 0.01 µM
[3] = second compound 0.1 µM, first compound 0.0316 µM
[4] = second compound 0.1 µM, first compound 0.1 µM
[5] = second compound 0.1 µM, first compound 0.316 µM
[6] = second compound 0.1 µM, first compound 1 µM
[7] = second compound 0.316 µM, first compound 0.00316 µM
[8] = second compound 0.316 µM, first compound 0.01 µM
[9] = second compound 0.316 µM, first compound 0.0316 µM
[10] = second compound 0.316 µM, first compound 0.1 µM
[11] = second compound 0.316 µM, first compound 0.316 µM
[12] = second compound 0.316 µM, first compound 1 µM
[13] = second compound 1 µM, first compound 0.00316 µM
[14] = second compound 1 µM, first compound 0.01 µM
[15] = second compound 1 µM, first compound 0.0316 µM
[16] = second compound 1 µM, first compound 0.1 µM
[17] = second compound 1 µM, first compound 0.316 µM
[18] = second compound 1 µM, first compound 1 µM
[19] = second compound 3.16 µM, first compound 0.00316 µM
[20] = second compound 3.16 µM, first compound 0.01 µM
[21] = second compound 3.16 µM, first compound 0.0316 µM
[22] = second compound 3.16 µM, first compound 0.1 µM
[23] = second compound 3.16 µM, first compound 0.316 µM
[24] = second compound 3.16 µM, first compound 1 µM
[25] = second compound 10 µM, first compound 0.00316 µM
[26] = second compound 10 µM, first compound 0.01 µM
[27] = second compound 10 µM, first compound 0.0316 µM
[28] = second compound 10 µM, first compound 0.1 µM
[29] = second compound 10 µM, first compound 0.316 µM
[30] = second compound 10 µM, first compound 1 µM
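Also: spheroids exposed to agents for 7 days before viability read.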

CCN1CCN(Cc2ccc(Nc3ncc(F)c(-c4cc(F)c5nc(C)n(C(C)C)c5c4)n3)nc2)CC1 + Cc1c(S(C)(=O)=O)c(-c2cc(F)cc(N3CCN(c4ccc(NS(=O)(=O)c5ccc(NC(CCN6CCC(C(=O)OCCCP(=O)(O)O)CC6)CSc6ccccc6)c(S(=O)(=O)C(F)(F)F)c5)cc4)CC3)c2)c(-c2ccc(Cl)cc2)n1C(C)C gave an IC50 (second compound 0.1 µM) of over 1000 nM, an IC50 (second compound 0.316 µM) of over 1000 nM and an IC50 (second compound 1 µM) of 556 nM. The IC50 (second compound 3.16 µM) was 782 nM, the IC50 (second compound 10 µM) was 490 nM and the viability, T/C [1] was 99.3%. For the same compound, the viability, T/C [2] was 75.3%, the viability, T/C [3] was 88.9% and the viability, T/C [4] was 78.1%. For the same compound, the viability, T/C [5] was 87.8%, the viability, T/C [6] was 61% and the viability, T/C [7] was 83.7%. For the same compound, the viability, T/C [8] was 77.5%, the viability, T/C [9] was 86.5% and the viability, T/C [10] was 83.5%. It also gave a viability, T/C [11] of 74.7%, a viability, T/C [12] of 57.5% and a viability, T/C [13] of 78.2%. The viability, T/C [14] was 89.6%, the viability, T/C [15] was 86.6% and the viability, T/C [16] was 77.3%. It also gave a viability, T/C [17] of 62%, a viability, T/C [18] of 37.9% and a viability, T/C [19] of 69.6%. It also gave a viability, T/C [20] of 86.1%, a viability, T/C [21] of 90.1% and a viability, T/C [22] of 66.5%. For the same compound, the viability, T/C [23] was 67.6%, the viability, T/C [24] was 45.5% and the viability, T/C [25] was 68.9%. The viability, T/C [26] was 69.7%, the viability, T/C [27] was 79.9% and the viability, T/C [28] was 64%. It also gave a viability, T/C [29] of 70.6% and a viability, T/C [30] of 16.7%.
Compound COc1c(OCCCN2CCOCC2)ccc2c3n(c(=NC(=O)c4cnc(N)nc4)nc12)CCN3 + Cc1c(S(C)(=O)=O)c(-c2cc(F)cc(N3CCN(c4ccc(NS(=O)(=O)c5ccc(NC(CCN6CCC(C(=O)OCCCP(=O)(O)O)CC6)CSc6ccccc6)c(S(=O)(=O)C(F)(F)F)c5)cc4)CC3)c2)c(-c2ccc(Cl)cc2)n1C(C)C has an IC50 (second compound 0.1 µM) of 46.9 nM, an IC50 (second compound 0.316 µM) of 28.4 nM and an IC50 (second compound 1 µM) of 18.9 nM. It also gave an IC50 (second compound 3.16 µM) of 10.5 nM, an IC50 (second compound 10 µM) of 3.16 nM and a viability, T/C [1] of 71%. It also gave a viability, T/C [2] of 67.5%, a viability, T/C [3] of 42.1% and a viability, T/C [4] of 51.2%. The viability, T/C [5] was 29.9%, the viability, T/C [6] was 10.1% and the viability, T/C [7] was 75.6%. It also gave a viability, T/C [8] of 56.6%, a viability, T/C [9] of 44.4% and a viability, T/C [10] of 47.9%. For the same compound, the viability, T/C [11] was 16.4%, the viability, T/C [12] was 10.5% and the viability, T/C [13] was 57.9%. The viability, T/C [14] was 61.3%, the viability, T/C [15] was 41.5% and the viability, T/C [16] was 27.7%. It also gave a viability, T/C [17] of 14.2%, a viability, T/C [18] of 9.33% and a viability, T/C [19] of 59%. For the same compound, the viability, T/C [20] was 50.5%, the viability, T/C [21] was 41.7% and the viability, T/C [22] was 29%. For the same compound, the viability, T/C [23] was 23.9%, the viability, T/C [24] was 9.13% and the viability, T/C [25] was 48.7%. For the same compound, the viability, T/C [26] was 57.3%, the viability, T/C [27] was 34% and the viability, T/C [28] was 53.7%. It also gave a viability, T/C [29] of 11.1% and a viability, T/C [30] of 19.6%.
Work on C#Cc1c(F)ccc2cc(O)cc(-c3ncc4c(N5CC6CCC(C5)N6)nc(OCC56CCCN5CC(F)C6)nc4c3F)c12 (stereo not given) + CCN1C(C(=O)NC23CCC(C(=O)O)(CC2)CC3)C(c2cccc(Cl)c2F)C2(C(=O)Nc3cc(Cl)ccc32)C12CCCCC2 yielded an IC50 (second compound 0.03 µM) of over 10000 nM, an IC50 (second compound 0.0949 µM) of over 10000 nM and an IC50 (second compound 0.3 µM) of over 10000 nM. For the same compound, the IC50 (second compound 0.949 µM) was over 10000 nM, the IC50 (second compound 3 µM) was over 10000 nM and the viability, T/C (second compound 0.03 µM, first compound 0.0316 µM) was 98.9%. The viability, T/C (second compound 0.03 µM, first compound 0.1 µM) was 86%, the viability, T/C (second compound 0.03 µM, first compound 0.316 µM) was 102% and the viability, T/C (second compound 0.03 µM, first compound 1 µM) was 89.6%. For the same compound, the viability, T/C (second compound 0.03 µM, first compound 3.16 µM) was 96.7%, the viability, T/C (second compound 0.03 µM, first compound 10 µM) was 89.6% and the viability, T/C (second compound 0.0949 µM, first compound 0.0316 µM) was 105%. The viability, T/C (second compound 0.0949 µM, first compound 0.1 µM) was 83.2%, the viability, T/C (second compound 0.0949 µM, first compound 0.316 µM) was 93.9% and the viability, T/C (second compound 0.0949 µM, first compound 1 µM) was 79.5%. It also gave a viability, T/C (second compound 0.0949 µM, first compound 3.16 µM) of 91%, a viability, T/C (second compound 0.0949 µM, first compound 10 µM) of 61.9% and a viability, T/C (second compound 0.3 µM, first compound 0.0316 µM) of 80.2%. The viability, T/C (second compound 0.3 µM, first compound 0.1 µM) was 66.7%, the viability, T/C (second compound 0.3 µM, first compound 0.316 µM) was 75% and the viability, T/C (second compound 0.3 µM, first compound 1 µM) was 86.1%. The viability, T/C (second compound 0.3 µM, first compound 3.16 µM) was 83.3%, the viability, T/C (second compound 0.3 µM, first compound 10 µM) was 61.8% and the viability, T/C (second compound 0.949 µM, first compound 0.0316 µM) was 86.6%. The viability, T/C (second compound 0.949 µM, first compound 0.1 µM) was 80.3%, the viability, T/C (second compound 0.949 µM, first compound 0.316 µM) was 85.7% and the viability, T/C (second compound 0.949 µM, first compound 1 µM) was 74.9%. It also gave a viability, T/C (second compound 0.949 µM, first compound 3.16 µM) of 76.3%, a viability, T/C (second compound 0.949 µM, first compound 10 µM) of 78.5% and a viability, T/C (second compound 3 µM, first compound 0.0316 µM) of 95.8%. For the same compound, the viability, T/C (second compound 3 µM, first compound 0.1 µM) was 102%, the viability, T/C (second compound 3 µM, first compound 0.316 µM) was 76% and the viability, T/C (second compound 3 µM, first compound 1 µM) was 78%. For the same compound, the viability, T/C (second compound 3 µM, first compound 3.16 µM) was 70.1% and the viability, T/C (second compound 3 µM, first compound 10 µM) was 78.6%.
